Experimental data: ChEMBL document CHEMBL1150503, “Design, synthesis and molecular modeling of 3-acylamino-2- Carboxyindole NMDA receptor glycine-site antagonists” (Bioorg Med Chem Lett, 1991)

molecular target: Glutamate receptor ionotropic, NMDA 1 (Rattus norvegicus, UniProt P35439); assay: Ability of compound to compete with [3H]glycine for the strychnine-insensitive NMDA receptor glycine binding sites on rat cortical and hippocampus; assay type: tissue-based

| IC50 | SMILES |
| --- | --- |
| 110 nM | CN(C(=O)c1ccccc1)c1c(C(=O)O)[nH]c2cc(Cl)ccc12 |
| 270 nM | CN(C(=O)c1ccccc1)c1c(C(=O)O)[nH]c2cc(Cl)cc(Cl)c12 |
| 3000 nM | O=C(Nc1c(C(=O)O)[nH]c2cc(Cl)ccc12)c1ccccc1 |
| 17000 nM | O=C(Nc1c(C(=O)O)[nH]c2cc(Cl)cc(Cl)c12)c1ccccc1 |
| 170 nM | O=C(O)C(=O)Nc1c(C(=O)O)[nH]c2cc(Cl)cc(Cl)c12 |
| 100 nM | O=C(O)CSc1c(C(=O)O)[nH]c2cc(Cl)cc(Cl)c12 |
| 400 nM | O=C(O)CN(C(=O)c1ccccc1)c1c(C(=O)O)[nH]c2cc(Cl)cc(Cl)c12 |
| 9500 nM | CN(C(=O)C(=O)O)c1c(C(=O)O)[nH]c2cc(Cl)cc(Cl)c12 |
| 140 nM | O=C(O)c1cc(O)c2c(Cl)cc(Cl)cc2n1 |
